Experimental data: patent US20220202739A1, “ENDOCANNABINOID MIMETIC AND ANTI-INFLAMMATORY COMPOUND CONTAINING COMPOSITIONS, METHODS OF PREPARATION AND USES THEREOF” (priority 2019, published 2022)

System: MMP1
Assay: Gene expression custom microarray, pooled keratinocyte line (Example 3): MMP1
Type: cell-based, human
Conditions: pooled keratinocytes, 20 ppm, 24 hr
Procedure: Cell cultures: Received and began culture of pooled keratinocyte line from Promocell (C-12006; Lot #448Z026). Cells were seeded into a 75 cm2 flask and 2 6 well dishes for expansion and exposure per manufacturer's protocol using Keratinocyte Growth Medium (C2011B), Keratinocyte Supplement Mix (C39016) and CaCl (C34005). 2 ml of prepared solution were added to each of the 6 wells and 7 ml was added to the 75 cm2 flask.
Experimental phase: When the appropriate quantity of cells were grown, they were detached as described above, but at the final step were seeded into each well of one or more 6 well dishes. Each well received 2 ml of the cells suspended in suspension so they were seeded equally. The dishes were returned to the incubator until 85-95% confluency is reached.
It was at this stage that all wells were rinsed in PBS after aspirating the growth media. The compound(s) to be tested were previously mixed into a suitable solvent (e.g., DMSO or ethanol) that can be diluted to the desired concentration of test compound (10 μl) in the culture wells without exceeding maximum solvent concentrations and adversely effecting cell viability, and mixed with Basal Keratinocyte Media. NOTE: Standard maximum levels of solvent are 0.1% for DMSO and 0.5% for ETOH. The concentration for each tested compound/natural extract is generally listed in the left-hand column of Table 4. For certain compositions (e.g., compositions 15 and 16), other concentrations were used and are noted in the body of Table 4.
Every 2 wells on the 6 well plate served as a biological replicate for the purposes of RNA isolation and genetic expression evaluations making each 6 well dish an n=3 for the test compound contained in the media. […]
At the end of the 24 hr time period, the plates were removed from the incubator, the test media aspirated, and the cells rinsed with PBS. […] Allow 1 minute for saturation of the membrane and then centrifuge for 2 minutes to complete the RNA elution. • Quantify the quantity of RNA and store at −20 C° until use (no more than 1 month) […]

Compared with `CC(C)[C@]12O[C@H]1[C@@H]1O[C@]13[C@]1(O[C@H]1C[C@H]1C4=C(CC[C@@]13C)C(=O)OC4)[C@@H]2O` [Triptolide], `C=C(C)[C@@H]1CCC(C)=C[C@H]1c1c(O)cc(CCCCC)cc1O` [CBD, cannabidiol, reference compound] is higher in “↓MMP1 gene expression, fold increase or decrease vs untreated cells” value: 1.2 fold for the first, 6.5 fold for the second.

With `CCCCCCCCCCCCCCCC(=O)NCCO` [N-palmitoylethanolamide] the “↓MMP1 gene expression, fold increase or decrease vs untreated cells” value was 12.2 fold.
